target: T1, human CRF receptor (Homo sapiens, UniProt P34998); assay: Measurement of corticotropin-releasing factor (CRF) binding inhibitory rate; receptor binding experiment with 125I-CRF; conditions: human CRF receptor expressing CHO cellular membrane fraction, 50 pM 125I-CRF, room temperature 1 hour
T1 construct: expressed in transfected cells; host or cells: CHO cells (membrane fraction)
T1 sequence (P34998 24-415): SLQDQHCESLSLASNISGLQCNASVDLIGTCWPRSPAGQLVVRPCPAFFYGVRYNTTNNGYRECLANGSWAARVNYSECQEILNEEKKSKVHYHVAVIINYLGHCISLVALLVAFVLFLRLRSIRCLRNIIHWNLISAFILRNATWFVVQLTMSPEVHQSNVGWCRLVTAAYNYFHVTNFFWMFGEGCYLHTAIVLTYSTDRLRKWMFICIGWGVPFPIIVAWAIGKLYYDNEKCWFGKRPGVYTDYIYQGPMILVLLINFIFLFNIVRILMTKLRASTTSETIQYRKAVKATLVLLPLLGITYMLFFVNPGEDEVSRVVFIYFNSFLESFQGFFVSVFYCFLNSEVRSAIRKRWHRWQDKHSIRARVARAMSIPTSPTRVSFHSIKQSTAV
Procedure: Measurement of Corticotropin-Releasing Factor (CRF) Binding Inhibitory Rate
A receptor binding experiment was carried out using a human CRF receptor expressing CHO cellular membrane fraction and sheep CRF, [^125I]-tyr^0(^125I-CRF). 100 nM of a test compound was incubated with 1 μg of human CRF receptor expressing CHO cellular membrane fraction and 50 pM of ^125I-CRF in a binding assay buffer (50 mM Tris-HCl, 5 mM EDTA, 10 mM MgCl2, 0.05% CHAPS, 0.1% BSA, 0.5 mM PMSF, […] pepstatin, 20 μg/ml leupeptin, pH 7.5). In addition, for measuring nonspecific binding (NSB), 0.1 μM unlabelled human Urocortin was incubated with 1 μg of human CRF receptor expressing CHO cellular membrane fraction and 50 pM of ^125I-CRF in a binding assay buffer. After a binding reaction was carried out at room temperature for 1 hour, the membrane was entrapped on a glass filter (UniFilter plate GF-C/Perkin Elmer) by suction filtration using a cell harvester (Perkin Elmer), and washed with ice-cooled 50 mM Tris-HCl (pH 7.5). After drying the glass filter, a liquid scintillation cocktail (Microscinti 0, Perkin Elmer) was added, and the radioactivity of ^125I-CRF remaining on a glass filter was measured using Topcount (Perkin Elmer).
(TB-SB)/(TB-NSB)×100 (SB: radioactivity when a compound is added, TB: maximum binding radioactivity, NSB: nonspecific binding radioactivity) was calculated to obtain a binding inhibitory rate under the presence of 1,000 nM or 100 nM of each test substances.

Question: `CCC(CC)n1c2cccc(-c3c(C)cc(C)cc3C)c2c(=O)n1C` [Example 150, 1-(1-ethylpropyl)-4-mesityl-2-methyl-1,2-dihydro-3H-indazol-3-one] was tested. Which inhibition did it give?
Answer: > 80%

Question: Which inhibition does the source give for `CCCN(CCC)c1nc2c(c(-c3c(C)cc(C)cc3C)cn2C)c(=O)n1C` [Example 41, 2-(Dipropylamino)-5-mesityl-3,7-dimethyl-3,7-dihydro-4H-pyrrolo[2,3-d]pyrimidin-4-one] here?
Answer: > 80%

Question: For `CCCN(CCC)c1nc2c(c(-c3ccc(C)cc3C)nn2C)c(=O)n1C` [9 (A), 3-(2,4-Dimethylphenyl)-6-dipropylamino-1,5-dimethyl-1,5-dihydro-4H-pyrazolo[3,4-d]pyrimidin-4-one], which inhibition is on record?
Answer: > 80%

Question: `CCCN(CCC)c1cc(C)c(=O)n2c(-c3c(C)cc(C)cc3C)cccc12` [Example 28, 1-(Dipropylamino)-6-mesityl-3-methyl-4H-quinolizin-4-one] was tested. Which inhibition did it give?
Answer: > 80%

Question: With `CCCC(CCC)n1cc(C)c(=O)c2c(-c3ccc(C)cc3C)cccc21` [Example 24, 5-(2,4-Dimethylphenyl)-3-methyl-1-(1-propylbutyl)quinolin-4(1H)-one] as the molecule, how does the inhibition read?
Answer: > 80%

Question: `CCC(CC)Oc1nn(C)c(=O)c2c1ccn2-c1ccc(C)cc1C` [Example 96, 1-(2,4-Dimethylphenyl)-4-(1-ethylpropoxy)-6-methyl-1,6-dihydro-7H-pyrrolo[2,3-d]pyridazin-7-one] was tested. Which inhibition did it give?
Answer: > 80%

Source: patent publication US7897607B2, “Cyclic compounds” (Takeda Pharmaceutical Company Limited, priority 2005, dated 2011)
